# Test results published in patent US20240342195A1, “AGENT FOR COMBINATION USE COMPRISING T CELL AND/OR B CELL ACTIVITY REGULATOR” (TOKAI UNIVERSITY EDUCATIONAL SYSTEM, priority 2021, published 2024).
# Entries after “also recorded” stand apart in the source; their conditions may differ.
# Key:
# [1] = test system: CD4 and CD8 T cells in PBMCs; assay: restimulation experiment (transient vs continuous P4/COR), PD-1/PD-L1 on T cells; type: cell-based, human; details: CD4 and CD8 T cells, TSST-1 3 days
# Method: (§1) In a restimulation experiment, PBMCs were cultured for 6 hours at 37° C. in 5% CO2 in 10% FCS-containing RPMI 1640 to which 200 μM P4 or COR was added. These cells were washed, adjusted to a final concentration of 1×10^6/mL, and cultured again in the presence or absence of 200 μM P4 or COR with stimulation by 1 μM TSST-1. After 72 hours, the resultant cells were collected to be analyzed by FCM.
# [2] = test system: T cell (CD3 gated) in human PBMCs; assay: atezolizumab addition experiment, PD-L1/PD-1 expression on T cell by FCM; type: cell-based; details: 0 to 200 μM; TSST-1; 3 days
# Method: (§2) As for an experiment of atezolizumab addition, 0 to 200 μM P4 or COR, 1 μM TSST-1, and 100 μg/mL atezolizumab were added to PBMCs, and the resultant was cultured for 72 hours at 37° C. in 5% CO2, followed by analysis by FCM.
# [3] = test system: Hu-PBMC-NOG (GVHD onset model); assay: GVHD onset model: human PBMCs transplanted to NOG mouse, P4 or COR administered subcutaneously; type: in vivo; details: 4 weeks
# Method: In the analysis using the GVHD model, PBMCs prepared in the same manner as described above were washed with PBS, and 2.5×10^6 PBMCs were intravenously transplanted to each 8- to 9-week-old NOG mouse. […] At the same time as the administration, the weight was measured. After 4 weeks, the mouse was anesthetized to collect heart blood, and euthanized. From various lymphoid organs excised, human cells were prepared, hemolyzed, and then subjected to FCM. Besides, the lung and the liver were excised, and immunohistochemically stained as follows. A tissue of the mouse was immobilized with 20% formalin (Wako Pure Chemical Industries, Ltd.), and embedded in paraffin. The obtained paraffin block was sliced, and the resultant was subjected to deparaffinization, mounted on a slide glass, and stained with hematoxylin and eosin (HE). In immunohistochemical staining with an anti-human CD45 antibody, the slide was subjected to a heat treatment at 97° C. for 20 minutes, and subjected to an endogenous peroxidase treatment through a reaction with 0.3% H2O2/MetOH at room temperature for 10 minutes. Thereafter, the resultant was blocked with 1% goat serum, and anti-human CD45 (Dako) was added thereto, followed by a reaction overnight at 4° C. The resultant slide was washed 3 times with 0.01 M PBS for 5 minutes, and colored with a DAB solution. The resultant was washed with running water for 3 minutes, and stained with hematoxylin, followed by dehydration and penetration/encapsulation.
# [4] = test system: B cell (CD19 gated) in human PBMCs; assay: atezolizumab addition experiment, PD-L1/PD-1 expression on B cell by FCM; type: cell-based; details: TSST-1, 3 days
# Method: as §2
# [5] = test system: PBMC-NOG-hIL-4-Tg mouse; assay: transplantation of P4/COR-cultured PBMCs to NOG-hIL-4-Tg mouse immunized with CH401MAP; type: in vivo
# [6] = test system: Human peripheral blood mononuclear cells (PBMCs); assay: cytokine production in PBMCs activated in the presence of P4; type: cell-based; details: 0 to 200 μM; PBMCs + TSST-1; 3 days
# Method: (§3) The PBMCs (final concentration: 1×10^6/mL) were cultured for 3 days at 37° C. in 5% CO2 in 10% FCS-containing RPMI 1640 to which P4 or COR was added in various concentrations with stimulation by 1 μg/mL of toxic shock syndrome toxin-1 (TSST-1). These cells were collected, washed with PBS, and dispensed into a Fisher tube in an amount of 1×10^6 cells/tube. For analysis of a human cell surface marker, a fluorescent-labeled anti-human monoclonal antibody (mAbs) was used. The cells were stained with the mAbs, a reaction was performed for 15 minutes at 4° C., and the resultant was washed with PBS containing 1% (w/v) BSA. Then, the resultant was analyzed by FACS Fortessa, or FACS Verse (BD Bioscience, Franklin Lakes, NJ). In the analysis, a leukocyte gated or lymphocyte gated cells were further gated by expression of human CD45, and then the analysis was performed. A culture supernatant was collected, and 25 μL thereof was dispensed to quantitatively determine cytokine with Legend Plex™ kit from BioLegend.
# [7] = test system: CD4 and CD8 T cells in PBMCs; assay: FCM analysis of activation/exhaustion markers (CD25, PD-1) on T cells of TSST-1-stimulated PBMCs; type: cell-based, human; details: day 3
# Method: as §3
# [8] = test system: B cell in PBMCs; assay: FCM analysis of PD-1 on B cells of TSST-1-stimulated PBMCs; type: cell-based, human; details: TSST-1 and P4/COR stimulation; data not shown
# Method: as §3
# [9] = test system: Human peripheral blood mononuclear cells (PBMCs); assay: number of cells of TSST-1-stimulated PBMCs cultured with P4 or COR; type: cell-based; details: PBMCs + TSST-1; 3 days; high concentration
# Method: as §3
# [10] = test system: HEK293; assay: proliferating ability of cell line cultured with P4 or COR; type: cell-based, human; details: 200 μM, cultured 10 days
# Method: (§4) Each of human choriocarcinoma cell line JEG-3, BeWo, and embryonic kidney cell line HEK293 was cultured for 10 days at 37° C. in 5% CO2 in a 10% Fetal Calf Serum (FCS)-containing DMEM (Gibuco) to which water-soluble progesterone (P4; water soluble) (Sigma) or cortisol (COR) (Sigma) was added in various concentrations. Each of mouse myeloma cell line P3-X63-Ag8-U1 (P3X) and mouse lymphoma cell line A20 was cultured for 3 days at 37° C. in 5% CO2 in 10% FCS-containing RPMI 1640 to which P4 or COR was added in various concentrations. Proliferation of the cells was evaluated by measuring the number of the cells.
# [11] = test system: BeWo; assay: as above; type: cell-based, human; details: 200 μM, cultured 10 days
# Method: as §4
# [12] = test system: JEG-3; assay: as above; type: cell-based, human; details: 200 μM, cultured 10 days
# Method: as §4
# [13] = test system: A20; assay: as above; type: cell-based, mouse; details: cultured 3 days
# Method: as §4
# [14] = test system: P3-X63-Ag8-U1 (P3X); assay: as above; type: cell-based, mouse; details: cultured 3 days
# Method: as §4
# [15] = test system: B cell in PBMCs; assay: restimulation experiment (transient vs continuous P4/COR), PD-L1 on B cells; type: cell-based, human; details: TSST-1 3 days
# Method: as §1
# [16] = 2 mg/head subcutaneously twice a week
structure (smiles),measurement,setting,value
"CC(=O)[C@H]1CC[C@H]2[C@@H]3CCC4=CC(=O)CC[C@]4(C)[C@H]3CC[C@]12C [P4, progesterone]",ratio of later-phase activated (PD-1/PD-L1-positive) cells,"[1]; continuously added, 200 μM",remarkably reduced
same,activation (PD-1/PD-L1-positive cells) vs control group,"[1]; transiently added (200 μM 6 hours, washed)",substantially equivalent to or greater than that of a control group
same,PD-1 expression in a T cell,[2],reduction in PD-1 expression dependent on P4 concentration
same,PD-L1 expression in a T cell,[2],reduced
same,CD8 T cells,[3]; [16],tend to increase
same,GVHD symptoms,[3]; [16],remarkably relieved
same,number of spleen cells vs control,[3]; [16],rather increased
same,weight loss by GVHD,[3]; [16],only slightly caused at an initial stage
same,lymphocyte infiltration into a peripheral tissue such as the lung,"[3]; anti-human CD45 immunohistochemical staining, 2 mg/head subcutaneously twice a week",tended to be suppressed
same,CD62L expression in vivo,[3]; continuously administered to humanized NOG mouse of GVHD onset model,maintained CD62L expression in vivo for a long period of 4 weeks
same,PD-L1 expression in a B cell,[4]; 0 to 200 μM,showed PD-L1 expression
same,PD-L1 expression in a B cell,[4]; 20 μM,high
same,engraftment ability of transplanted PBMCs,"[5]; PBMCs cultured with 200 μM for 6 hours before transplantation, analysis after 4 weeks",equivalent to that of a control group
same,specific antibody production (CH401MAP),"[5]; PBMCs cultured with 200 μM for 6 hours before transplantation, plasma after 4 weeks",maintained
same,expression of CD62L in human cells engrafted into the spleen,"[5]; treated PBMCs transplanted to NOG-hIL-4-Tg, 4 weeks",increased as compared with that in a CTRL mouse
same,cytokine production in culture supernatant (10 cytokines of FIG. 4),[6],suppression of cytokine production was observed depending on the P4 concentration
same,activation marker-negative (non-activated) T cells,[7]; 20 to 200 μM,increased depending on the P4 concentration
same,later-phase activated (CD25-positive PD-1-positive) T cells,"[7]; CD4 and CD8 T cells, 200 μM",minimally detected
same,ratio of later-phase activated (CD25-positive PD-1-positive) T cells,"[7]; CD4 and CD8 T cells, 20 to 200 μM",reduced dependent on the P4 concentration
same,PD-1 expression on B cell,[8],not increased
same,proliferation (number of cells),[9],suppressed
same,cell proliferating ability,[10],little proliferated
same,cell proliferating ability,[11],little proliferated
same,cell proliferating ability,[12],little proliferated
same,proliferation,[13]; 20 μM or less,proliferation suppression was not observed
same,proliferation,[13]; high concentration of 200 μm,proliferation suppression was observed
same,proliferation,[14]; 20 μM or less,proliferation suppression was not observed
same,proliferation,[14]; high concentration of 200 μm,proliferation suppression was observed
same,PD-L1 expression in B cell,"[15]; continuous administration, 200 μM",suppressed PD-L1 expression
same,PD-L1 expression in B cell,"[15]; transient addition (200 μM 6 hours, washed)",tended to maintain the expression; also recorded: tended to rather increase PD-L1 expression
